According to patent US7148338B2, “Nucleic acids encoding dipeptidyl peptidases” (The University of Sydney, priority 1999, dated 2006):
Values belong to the compound of their own block, whether it stands above or below them. Non-standard residues stand in square brackets, D forms with d. Residues, ends and D or L forms follow the SMILES beside them. *: point of attachment. Sta = CC(C)C[C@H](N)[C@@H](O)CC(=O)O; pNA = O=[N+]([O-])c1ccc(N*)cc1; Isovaleryl = CC(C)CC(=O)*; Cbz = O=C(OCc1ccccc1)*

Legend:
DPPIV [1] = target: T1, DPPIV (Homo sapiens, UniProt P27487); assay: Inhibition of peptidase activity of purified DPPIV, substrate H-Gly-Pro-pNA; assay type: biochemical; parameters: His tag; made in house; host or cells: transfected COS-7 cells; solubilised with 1% Triton X-100; details: 1 mM H-Gly-Pro-pNA, pH 7.4
Protocol: (§1) Cells (1×10^7) expressing each protein were sonicated in native buffer (50 mM sodium phosphate, 300 mM NaCl), then treated with 700 U DNAse for 20 min at room temperature. DPPIV is expressed at the cell surface, so 1% Triton X-100 was used to solubilize DPPIV/V5/His. Insoluble material was removed by centrifugation. The supernatant was incubated with 1 mL Talon® Metal Affinity Resin (Clontech) following the manufacturer's instructions for a batch/gravity flow procedure. The resin was washed with 50 mM sodium phosphate, containing 300 mM NaCl and 5 mM imidazole, and proteins were eluted using the same buffer containing 150 mM imidazole. Enzyme activity was used to monitor eluted fractions.
(§2) Enzyme assays were performed as described previously. Either clarified cell extract from 1×10^4 sonicated COS-7 cells or purified protein derived from 1×10^5 cells was incubated with substrate in 70 μL phosphate buffer, pH 7.4, for 30 min at 37° C., except where otherwise indicated. The specific DPPIV substrates, Gly-Pro-toluenesulfonate, H-Gly-Pro-p-nitroanilide (NA)/HCl (Sigma, St Louis, Mo., USA) and Gly-Pro-7-amino-4-trifluromethylcoumarin (Calbiochem, San Diego, Calif., USA) were tested. Other substrates tested were H-Ala-Pro-pNA/HCl, H-Arg-Pro-pNA acetate salt, H-Lys-Ala-pNA.2HCl, H-Asp-Pro-pNA, H-Ala-Ala-pNA/HCl, H-Ala-Ala-Pro-pNA/HCl, H-Ala-Ala-Phe-pNA, succinyl-Ala-Pro-pNA, H-Ala-Phe-Pro-pNA and Z-Ala-Pro-p-NA from Bachem (Switzerland). H-Ala-Pro-4-methoxyβNA/HCl, Z-Lys-Pro-4-methoxyβNAformate salt, H-Lys-Pro-4-methoxyβNA/HCl, Z-Ala-Pro-4-methoxyβNA, H-Gly-Pro-βNA and H-His-Ser-4-methoxyβNAacetate salt (Bachem) were tested for their ability to stain unfixed transfected cells. All inhibitors were (see Table 2) incubated with each purified enzyme in phosphate buffer, pH 7.4, for 15 min before the addition of substrate. After the addition of 1 mM H-Ala-Pro-pNA substrate for purified DPP8 and 1 mM H-Gly-Pro-pNA substrate for purified DPPIV, samples were incubated for 60 min at 37° C. All enzyme assays were performed in triplicate.

DPP8 [2] = target: T2, DPP8 (Homo sapiens, UniProt Q6V1X1); assay: Inhibition of peptidase activity of purified DPP8, substrate H-Ala-Pro-pNA; assay type: biochemical; parameters: the full length DPP8 cDNA of 3.1 kb was cloned into the Xba I site of pcDNA3.1A/V5/His expression vector; His tag (C); made in house; host or cells: COS-7 cells, stably transfected; details: for Residual activity (% of control): 1 mM H-Ala-Pro-pNA, pH 7.4
Protocol: as §1, §2

[3] = system: DPP8-transfected COS cells and CHO cells; assay: Cytochemical staining of unfixed transfected cell monolayers by substrates; assay type: cell-based; details: data not shown
Protocol: (§3) Monkey kidney fibroblast (COS-7) cells (American Type Culture Collection, CRL-1651) were grown and transfected as described previously. For making stable cell lines, Geneticin (G418; Gibco-BRL) was added to the medium, beginning 24 h after transfection. COS cell extracts were prepared by sonication followed by differential centrifugation and neither boiled nor reduced before SDS/PAGE (10% gel) and transfer to nitrocellulose, as described previously. The presence of DPP8 fused with the V5 epitope was detected using an anti-V5 mAb (Invitrogen). COS cell monolayers were fixed in cold ethanol before staining with anti-V5 mAb. Some monolayers were fixed in 4% paraformaldehyde and permeabilized with 0.1% Triton X-100 [35], then double-stained with wheat germ agglutinin to label Golgi apparatus and with goat anti-mouse IgG to label DPP8, conjugated to Alexa Fluor 488 and Alexa Fluor 594, respectively (Molecular Probes, Eugene, Oreg., USA). Flow cytometry and confocal scanning microscopy using a Leica TCS-NT confocal microscope have been described previously.
Enzyme assays were performed as described previously. Either clarified cell extract from 1×10^4 sonicated COS-7 cells or purified protein derived from 1×10^5 cells was incubated with substrate in 70 μL phosphate buffer, pH 7.4, for 30 min at 37° C., except where otherwise indicated. […]

DPP8/V5/His = target: T3, DPP8/V5/His (Homo sapiens, UniProt Q6V1X1); assay: Substrate hydrolysis by purified recombinant DPP8/V5/His; assay type: biochemical
T3 construct: the full length DPP8 cDNA of 3.1 kb was cloned into the Xba I site of pcDNA3.1A/V5/His expression vector; His tag (C); made in house; host or cells: COS-7 cells, stably transfected
Protocol: as §1, §2

DPP8 [4] = target: T2, DPP8; assay: Substrate hydrolysis by extracts of DPP8-transfected COS-7 cells; assay type: biochemical; parameters: the full length DPP8 cDNA of 3.1 kb was cloned into the Xba I site of pcDNA3.1A/V5/His expression vector; expressed in transfected cells; host or cells: COS-7 (monkey kidney fibroblast) cells; clarified sonicated cell extract; details: above the levels of untransfected COS-7 cells; data not shown
Protocol: as §3, §2
DPPIV expressed in COS-7 cells with or without the V5/His tag were positive controls, and negative controls included vector-only transfected COS07 cells. […] The pH optimum of DPP8 enzyme activity was 7.4 (FIG. 5A), similar to the pH 7.8 optimum DPPIV enzyme activity. […]

DPP8 [5] = target: T2, DPP8; assay: Enzyme kinetics (Km, Vmax) of purified DPP8; assay type: biochemical; parameters: the full length DPP8 cDNA of 3.1 kb was cloned into the Xba I site of pcDNA3.1A/V5/His expression vector; His tag (C); made in house; host or cells: COS-7 cells, stably transfected; details: for Km: Michaelis-Menten fit
Protocol: (§4) FIG. 7. DPP8 enzyme activity. (A) pH-dependence of DPP8 enzyme activity. (B) DPP8 and DPPIV enzyme kinetics. Means +/− SD of absorbance change per minute, multiplied by 1000 are shown. Curve fitting assumed Michaelis-Menten kinetics.
as §1, §2

DPPIV [6] = target: T1, DPPIV; assay: Enzyme kinetics (Km, Vmax) of purified DPPIV; assay type: biochemical; parameters: His tag; made in house; host or cells: transfected COS-7 cells; solubilised with 1% Triton X-100; details: for Km: Michaelis-Menten fit
Protocol: as §4, §1, §2

DPPIV/V5/His = target: T4, DPPIV/V5/His (Homo sapiens, UniProt P27487); assay: Substrate hydrolysis by purified recombinant DPPIV/V5/His; assay type: biochemical
T4 construct: His tag; made in house; host or cells: transfected COS-7 cells; solubilised with 1% Triton X-100
Protocol: as §1, §2

DPPIV [7] = target: T1, DPPIV; details: reference [46]; cited from earlier work

T3 sequence (Q6V1X1 17-898 limits assumed): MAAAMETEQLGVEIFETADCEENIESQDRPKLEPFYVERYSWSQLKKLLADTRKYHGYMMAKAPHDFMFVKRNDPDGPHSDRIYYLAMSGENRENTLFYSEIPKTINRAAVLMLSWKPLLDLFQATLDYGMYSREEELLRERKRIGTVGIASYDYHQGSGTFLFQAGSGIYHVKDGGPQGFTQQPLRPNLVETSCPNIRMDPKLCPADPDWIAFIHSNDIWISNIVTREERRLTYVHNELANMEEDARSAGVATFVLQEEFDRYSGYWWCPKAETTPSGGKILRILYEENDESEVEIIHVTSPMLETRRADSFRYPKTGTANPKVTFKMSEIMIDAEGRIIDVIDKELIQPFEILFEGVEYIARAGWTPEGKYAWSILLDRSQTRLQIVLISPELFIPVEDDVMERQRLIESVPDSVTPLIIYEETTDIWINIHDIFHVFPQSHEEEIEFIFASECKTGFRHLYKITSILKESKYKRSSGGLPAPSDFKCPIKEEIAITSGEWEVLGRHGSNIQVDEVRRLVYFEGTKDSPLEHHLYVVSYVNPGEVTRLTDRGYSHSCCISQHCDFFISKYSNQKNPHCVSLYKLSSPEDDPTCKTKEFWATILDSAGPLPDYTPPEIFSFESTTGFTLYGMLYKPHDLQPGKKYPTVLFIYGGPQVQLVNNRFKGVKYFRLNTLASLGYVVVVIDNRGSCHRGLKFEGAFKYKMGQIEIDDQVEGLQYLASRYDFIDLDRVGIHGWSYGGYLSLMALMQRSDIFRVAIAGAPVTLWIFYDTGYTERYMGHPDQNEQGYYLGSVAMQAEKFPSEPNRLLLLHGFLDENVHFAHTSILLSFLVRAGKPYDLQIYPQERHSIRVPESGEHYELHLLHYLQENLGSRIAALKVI
T2 sequence (Q6V1X1 17-898 limits assumed): as above
T1 sequence (P27487 whole entry): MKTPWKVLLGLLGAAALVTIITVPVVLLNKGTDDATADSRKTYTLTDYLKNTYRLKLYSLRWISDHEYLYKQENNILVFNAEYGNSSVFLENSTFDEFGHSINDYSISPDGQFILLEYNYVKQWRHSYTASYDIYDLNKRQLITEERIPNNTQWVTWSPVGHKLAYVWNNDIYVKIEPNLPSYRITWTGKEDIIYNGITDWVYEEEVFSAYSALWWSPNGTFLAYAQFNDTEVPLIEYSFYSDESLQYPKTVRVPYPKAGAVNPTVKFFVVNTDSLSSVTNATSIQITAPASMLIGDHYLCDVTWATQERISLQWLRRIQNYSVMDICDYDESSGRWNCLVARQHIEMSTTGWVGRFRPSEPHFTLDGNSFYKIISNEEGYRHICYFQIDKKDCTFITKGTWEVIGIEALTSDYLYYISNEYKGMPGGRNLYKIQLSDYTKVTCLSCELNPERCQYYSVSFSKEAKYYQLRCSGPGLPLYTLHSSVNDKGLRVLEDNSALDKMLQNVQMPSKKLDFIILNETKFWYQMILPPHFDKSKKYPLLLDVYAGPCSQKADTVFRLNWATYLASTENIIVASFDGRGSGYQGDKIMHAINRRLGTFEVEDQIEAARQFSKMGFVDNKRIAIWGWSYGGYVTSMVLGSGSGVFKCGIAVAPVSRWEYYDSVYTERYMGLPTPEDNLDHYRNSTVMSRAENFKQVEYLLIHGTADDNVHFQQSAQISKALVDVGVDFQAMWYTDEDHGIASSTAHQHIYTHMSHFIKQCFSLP
T4 sequence (P27487 whole entry): as above

Compound: O[C@H](CS)[C@H](O)CS (racemic) [Dithiothreitol]
Residual activity (% of control) (DPPIV [1]; inhibitor 2 mM): 109 % of control | Residual activity (% of control) (DPP8 [2]; inhibitor 2 mM): 108 % of control

Compound: COc1cc(NC(=O)[C@@H]2CCCN2C(=O)[C@H](C)N)cc2ccccc12.Cl [Ala-Pro-4MβNA/HCl, H-Ala-Pro-4-methoxyβNA/HCl]
Staining of DPP8-transfected cells by substrate [3]: stained

Compound: Cl.N=C(N)c1ccccc1 [Benzamidine/HCl]
Residual activity (% of control) (DPPIV [1]; inhibitor 10 mM): 89 % of control | Residual activity (% of control) (DPP8 [2]; inhibitor 10 mM): 82 % of control

Compound: C[C@H](N)C(=O)N[C@@H](C)C(=O)N[C@@H](Cc1ccccc1)C(=O)Nc1ccc([N+](=O)[O-])cc1 [H-Ala-Ala-Phe-pNA] (H-Ala-Ala-Phe-pNA)
Hydrolysis (cleavage) of substrate by purified recombinant DPP8 (DPP8/V5/His): neither

Compound: C[C@H](N)C(=O)N[C@@H](C)C(=O)N1CCC[C@H]1C(=O)Nc1ccc([N+](=O)[O-])cc1.Cl [H-Ala-Ala-Pro-pNA] (H-Ala-Ala-Pro-pNA)
Hydrolysis of substrate by extracts of DPP8-transfected COS-7 cells (DPP8 [4]): exhibited tripeptidyl peptidase activity

Compound: C[C@H](N)C(=O)N[C@@H](Cc1ccccc1)C(=O)N1CCC[C@H]1C(=O)Nc1ccc([N+](=O)[O-])cc1 [H-Ala-Phe-Pro-pNA] (H-Ala-Phe-Pro-pNA)
Hydrolysis (cleavage) of substrate by purified recombinant DPP8 (DPP8/V5/His): neither

Compound: C[C@H](N)C(=O)N1CCC[C@H]1C(=O)Nc1ccc([N+](=O)[O-])cc1 [H-Ala-Pro-pNA] (H-Ala-Pro-pNA)
Vmax (DPP8 [5]): 12.4 ± 0.9 ΔA min^−1 × 1000 | Km (DPP8 [5]): 991 ± 171 µM | Vmax (DPPIV [6]): 9.6 ± 1.0 ΔA min^−1 × 1000 | Km (DPPIV [6]): 374 ± 134 µM | Hydrolysis (cleavage) of substrate by purified recombinant DPP8 (DPP8/V5/His): hydrolyzed | Hydrolysis of substrate by extracts of DPP8-transfected COS-7 cells (DPP8 [4]): hydrolyzed | Hydrolysis of substrate by purified recombinant DPPIV (DPPIV/V5/His): hydrolyzed

Compound: NC(=O)CI [Iodoacetamide]
Residual activity (% of control) (DPPIV [1]; inhibitor 2 mM): 115 % of control | Residual activity (% of control) (DPP8 [2]; inhibitor 2 mM): 100 % of control

Compound: CC(=O)N[C@@H](CC(C)C)C(=O)N[C@@H](CC(C)C)C(=O)N[C@H](C=O)CCCNC(=N)N [Leupeptin]
Residual activity (% of control) (DPPIV [1]; inhibitor 0.1 mM): 104 % of control | Residual activity (% of control) (DPP8 [2]; inhibitor 0.1 mM): 93 % of control

Compound: O=S(=O)([O-])[O-].[Zn+2] [Zinc sulphate]
Inhibition of DPPIV enzyme activity (in words) (DPPIV [7]): completely inhibits

Compound: Aprotinin
Residual activity (% of control) (DPPIV [1]; inhibitor 4 μg mL^−1): 81 % of control | Residual activity (% of control) (DPP8 [2]; inhibitor 4 μg mL^−1): 47 % of control

The remaining lines, values ahead:

Hydrolysis (cleavage) of substrate by purified recombinant DPP8 (DPP8/V5/His): hydrolyzed | Hydrolysis of substrate by extracts of DPP8-transfected COS-7 cells (DPP8 [4]): hydrolyzed | Hydrolysis of substrate by purified recombinant DPPIV (DPPIV/V5/His): hydrolyzed
Compound: NC(N)=NCCC[C@H](N)C(=O)N1CCC[C@H]1C(=O)Nc1ccc([N+](=O)[O-])cc1 [H-Arg-Pro-pNA] (H-Arg-Pro-pNA)

Vmax (DPP8 [5]): 3.5 ± 0.14 ΔA min^−1 × 1000 | Km (DPP8 [5]): 467 ± 64 µM | Vmax (DPPIV [6]): 7.2 ± 0.49 ΔA min^−1 × 1000 | Km (DPPIV [6]): 347 ± 88 µM | Hydrolysis (cleavage) of substrate by purified recombinant DPP8 (DPP8/V5/His): hydrolyzed | Hydrolysis of substrate by purified recombinant DPPIV (DPPIV/V5/His): hydrolyzed
Compound: NCC(=O)N1CCC[C@H]1C(=O)Nc1ccc([N+](=O)[O-])cc1 [H-Gly-Pro-pNA, H-Gly-Pro-p-nitroanilide] (H-Gly-Pro-pNA)

Residual activity (% of control) (DPPIV [1]; inhibitor 2 μg mL^−1): 110 % of control | Residual activity (% of control) (DPP8 [2]; inhibitor 2 μg mL^−1): 107 % of control
Compound: CC(C)CC(=O)N[C@H](C(=O)N[C@H](C(=O)N[C@@H](CC(C)C)[C@@H](O)CC(=O)N[C@@H](C)C(=O)N[C@@H](CC(C)C)[C@@H](O)CC(=O)O)C(C)C)C(C)C [Pepstatin] (Isovaleryl-VV[Sta]A[Sta]-OH)

Hydrolysis of substrate by extracts of DPP8-transfected COS-7 cells (DPP8 [4]): endopeptidase activity
Compound: C[C@H](NC(=O)OCc1ccccc1)C(=O)N1CCC[C@H]1C(=O)Nc1ccc([N+](=O)[O-])cc1 [Z-Ala-Pro-pNA] (Cbz-Ala-Pro-pNA)

Residual activity (% of control) (DPPIV [1]; inhibitor 10 mM): 67 % of control | Residual activity (% of control) (DPP8 [2]; inhibitor 10 mM): 51 % of control | Inhibition of DPP8 enzyme activity (in words) (DPP8 [2]; purified DPP8): probably competitively inhibited
Compound: Ala-Pro-Gly (APG) [peptide that mimics DPP8 substrates]

Residual activity (% of control) (DPPIV [1]; inhibitor 10 mM): 106 % of control | Residual activity (% of control) (DPP8 [2]; inhibitor 10 mM): 99 % of control
Compound: Gly-Gly-Gly (GGG) [peptide]
